Experiments:
Assay type in all cases: in vivo
[1] = tested on: Echinochloa crus-galli (ECHCG); test: Post-Emergence Test (herbicidal, glasshouse pots); conditions: evaluated after 13 days
Method: (§1) Seeds of a variety of test species are sown in standard soil in pots (Setaria faberi (SETFA), Ipomoea hederacea (IPOHE), Echinochloa crus-galli (ECHCG), (Amaranthus retoflexus (AMARE), Zea mays (ZEAMX), and Amaranthus palmeri (AMAPA)). After 8 days cultivation under controlled conditions in a glasshouse (at 24° C./16° C., day/night; 14 hours light; 65% humidity), the plants arm sprayed with an aqueous spray solution derived from the formulation of the technical active ingredient in acetone/water (50:50) solution containing 0.5% Tween 20 (polyoxyethylene sorbitan monolaurate, CAS RN 9005-84-5). Rate of application is shown in g/ha in the tables below. The test plants are then grown in a glasshouse under controlled conditions in a glasshouse (at 24° C./16° C., day/night; 14 hours light; 65% humidity) and watered twice daily. After 13 days the test is evaluated for the percentage damage caused to the plant. The biological activities are shown in the following table on a five-point scale (5=81-100%; 4=61-80%; 3=41-60%; 2=21-40%; 1=0-20%; -=not tested).

[2] = tested on: Amaranthus palmeri (AMAPA); test: Post-Emergence Test (herbicidal, glasshouse pots); conditions: evaluated after 13 days
Method: as §1

[3] = tested on: Ipomoea hederacea (IPOHE); test: Post-Emergence Test (herbicidal, glasshouse pots); conditions: evaluated after 13 days
Method: as §1

[4] = tested on: Amaranthus retoflexus (AMARE); test: Post-Emergence Test (herbicidal, glasshouse pots); conditions: evaluated after 13 days
Method: as §1

Zea mays (ZEAMX) [5] = test: Post-Emergence Test (herbicidal, glasshouse pots); conditions: evaluated after 13 days
Method: as §1

[6] = tested on: Amaranthus palmeri (AMAPA); test: Pre-Emergence Test (herbicidal, glasshouse pots); conditions: evaluated after 13 days, five-point scale
Setaria faberi (SETFA) [7] = test: Pre-Emergence Test (herbicidal, glasshouse pots); conditions: rate 250 g/ha, evaluated after 13 days, five-point scale
Zea mays (ZEAMX) [8] = test: Pre-Emergence Test (herbicidal, glasshouse pots); conditions: evaluated after 13 days, five-point scale
[9] = tested on: Ipomoea hederacea (IPOHE); test: Pre-Emergence Test (herbicidal, glasshouse pots); conditions: evaluated after 13 days, five-point scale
[10] = tested on: Echinochloa crus-galli (ECHCG); test: Pre-Emergence Test (herbicidal, glasshouse pots); conditions: evaluated after 13 days, five-point scale
[11] = tested on: Amaranthus retoflexus (AMARE); test: Pre-Emergence Test (herbicidal, glasshouse pots); conditions: evaluated after 13 days, five-point scale
Setaria faberi (SETFA) [12] = test: Post-Emergence Test (herbicidal, glasshouse pots); conditions: rate 250 g/ha; evaluated after 13 days
Method: as §1

Row | Structure (SMILES) | Post-Emergence Test ECHCG percentage damage (five-point scale) ([1]; rate 250 g/ha) | Post-Emergence Test AMAPA percentage damage (five-point scale) ([2]; rate 250 g/ha) | Post-Emergence Test IPHOE percentage damage (five-point scale) ([3]; rate 250 g/ha) | Post-Emergence Test AMARE percentage damage (five-point scale) ([4]; rate 250 g/ha) | Post-Emergence Test ZEAMX percentage damage (five-point scale) (Zea mays (ZEAMX) [5]; rate 250 g/ha) | percentage damage caused to the plant, AMAPA ([6]; rate 250 g/ha) | percentage damage caused to the plant, SETFA (Setaria faberi (SETFA) [7]) | percentage damage caused to the plant, ZEAMX (Zea mays (ZEAMX) [8]; rate 250 g/ha) | percentage damage caused to the plant, IPHOE ([9]; rate 250 g/ha) | percentage damage caused to the plant, ECHCG ([10]; rate 250 g/ha) | Post-Emergence Test ECHCG percentage damage (five-point scale) ([1]; rate 1000 g/ha) | Post-Emergence Test AMAPA percentage damage (five-point scale) ([2]; rate 1000 g/ha) | Post-Emergence Test IPHOE percentage damage (five-point scale) ([3]; rate 1000 g/ha) | Post-Emergence Test AMARE percentage damage (five-point scale) ([4]; rate 1000 g/ha) | Post-Emergence Test ZEAMX percentage damage (five-point scale) (Zea mays (ZEAMX) [5]; rate 1000 g/ha) | percentage damage caused to the plant, AMAPA ([6]; rate 1000 g/ha) | percentage damage caused to the plant, ZEAMX (Zea mays (ZEAMX) [8]; rate 1000 g/ha) | percentage damage caused to the plant, IPHOE ([9]; rate 1000 g/ha) | percentage damage caused to the plant, ECHCG ([10]; rate 1000 g/ha) | percentage damage caused to the plant, AMARE ([11]; rate 1000 g/ha) | also measured
1 | CCn1c(Nc2ccc(F)cc2)cc(=O)c(C(=O)O)c1-c1ccc(Cl)c(Cl)c1 [Compound 9, 2-(3,4-dichlorophenyl)-1-ethyl-6-(4-fluoroanilino)-4-oxo-pyridine-3-carboxylic acid] | 1 (1=0-20%) | 1 (1=0-20%) | 4 (4=61-80%) | 2 (2=21-40%) | 0 | 1 (1=0-20%) | 0 | 0 | 0 | 0 | – | – | – | – | – | – | – | – | – | – | percentage damage caused to the plant, AMARE ([11]; rate 250 g/ha): 0
2 | C/C=C(\C)COc1cc(=O)c(C(=O)O)c(-c2ccc(Cl)c(Cl)c2)n1CC [Compound 63, 2-(3,4-dichlorophenyl)-1-ethyl-6-[(E)-2-methylbut-2-enoxy]-4-oxo-pyridine-3-carboxylic acid] | 1 (1=0-20%) | 1 (1=0-20%) | 2 (2=21-40%) | 2 (2=21-40%) | 1 (1=0-20%) | 0 | 0 | 0 | 2 (2=21-40%) | 0 | – | – | – | – | – | – | – | – | – | – | Post-Emergence Test SETFA percentage damage (five-point scale) (Setaria faberi (SETFA) [12]): 0; percentage damage caused to the plant, AMARE ([11]; rate 250 g/ha): 1 (1=0-20%)
3 | CCn1c(Oc2ccnc(Cl)c2)cc(=O)c(C(=O)O)c1-c1ccc(Cl)c(Cl)c1 [Compound 54, 6-[(2-chloro-4-pyridyl)oxy]-2-(3,4-dichlorophenyl)-1-ethyl-4-oxo-pyridine-3-carboxylic acid] | 3 (3=41-60%) | 3 (3=41-60%) | 4 (4=61-80%) | 4 (4=61-80%) | 4 (4=61-80%) | 1 (1=0-20%) | 5 (5=81-100%) | 1 (1=0-20%) | 4 (4=61-80%) | 4 (4=61-80%) | – | – | – | – | – | – | – | – | – | – | Post-Emergence Test SETFA percentage damage (five-point scale) (Setaria faberi (SETFA) [12]): 3 (3=41-60%); percentage damage caused to the plant, AMARE ([11]; rate 250 g/ha): 3 (3=41-60%)
4 | CCn1c(Oc2ccc(Cl)cc2)cc(=O)c(C(=O)O)c1-c1ccc(Cl)c(Cl)c1 [Compound 19, 6-(4-chlorophenoxy)-2-(3,4-dichlorophenyl)-1-ethyl-4-oxo-pyridine-3-carboxylic acid] | – | – | – | – | – | – | – | – | – | – | 3 (3=41-60%) | 4 (4=61-80%) | 3 (3=41-60%) | 5 (5=81-100%) | 3 (3=41-60%) | 0 | 1 (1=0-20%) | 1 (1=0-20%) | 4 (4=61-80%) | 0 | –
5 | CCn1c(Oc2ccc(Cl)c(Cl)c2)cc(=O)c(C(=O)O)c1-c1ccc(Cl)c(Cl)c1 [Compound 18, 6-(3,4-dichlorophenoxy)-2-(3,4-dichlorophenyl)-1-ethyl-4-oxo-pyridine-3-carboxylic acid] | – | – | – | – | – | – | – | – | – | – | 0 | 1 (1=0-20%) | 1 (1=0-20%) | 1 (1=0-20%) | 1 (1=0-20%) | 0 | 0 | 0 | 0 | 0 | –
6 | CCn1c(Oc2ccc(Cl)cc2OC)cc(=O)c(C(=O)O)c1-c1ccc(Cl)c(Cl)c1 [Compound 26, 6-(4-chloro-2-methoxy-phenoxy)-2-(3,4-dichlorophenyl)-1-ethyl-4-oxo-pyridine-3-carboxylic acid] | – | – | – | – | – | – | – | – | – | – | 0 | 1 (1=0-20%) | 1 (1=0-20%) | 1 (1=0-20%) | 1 (1=0-20%) | 1 (1=0-20%) | 0 | 0 | 0 | 1 (1=0-20%) | –
7 | CCn1c(Nc2ncc(F)cc2F)cc(=O)c(C(=O)O)c1-c1ccc(Cl)c(Cl)c1 [Compound 31, 2-(3,4-dichlorophenyl)-6-[(3,5-difluoro-2-pyridyl)amino]-1-ethyl-4-oxo-pyridine-3-carboxylic acid] | – | – | – | – | – | – | – | – | – | – | 1 (1=0-20%) | 2 (2=21-40%) | 2 (2=21-40%) | 2 (2=21-40%) | 0 | 0 | 1 (1=0-20%) | 1 (1=0-20%) | 1 (1=0-20%) | 1 (1=0-20%) | –
8 | CCn1c(Sc2ccc(F)cc2)cc(=O)c(C(=O)O)c1-c1ccc(Cl)c(Cl)c1 [Compound 10, 2-(3,4-dichlorophenyl)-1-ethyl-6-(4-fluorophenyl)sulfanyl-4-oxo-pyridine-3-carboxylic acid] | – | – | – | – | – | – | – | – | – | – | 2 (2=21-40%) | 1 (1=0-20%) | 2 (2=21-40%) | 1 (1=0-20%) | 1 (1=0-20%) | 0 | 0 | 2 (2=21-40%) | 2 (2=21-40%) | 1 (1=0-20%) | –
9 | CCn1c(Oc2ccc(OC)cc2)cc(=O)c(C(=O)O)c1-c1ccc(Cl)c(Cl)c1 [Compound 11, 2-(3,4-dichlorophenyl)-1-ethyl-6-(4-methoxyphenoxy)-4-oxo-pyridine-3-carboxylic acid] | – | – | – | – | – | – | – | – | – | – | 1 (1=0-20%) | 5 (5=81-100%) | 3 (3=41-60%) | 5 (5=81-100%) | 2 (2=21-40%) | 1 (1=0-20%) | 1 (1=0-20%) | 5 (5=81-100%) | 0 | 2 (2=21-40%) | –
10 | CCn1c(Oc2cccc(F)c2)cc(=O)c(C(=O)O)c1-c1ccc(Cl)c(Cl)c1 [Compound 12, 2-(3,4-dichlorophenyl)-1-ethyl-6-(3-fluorophenoxy)-4-oxo-pyridine-3-carboxylic acid] | – | – | – | – | – | – | – | – | – | – | 4 (4=61-80%) | 5 (5=81-100%) | 5 (5=81-100%) | 5 (5=81-100%) | 4 (4=61-80%) | 4 (4=61-80%) | 4 (4=61-80%) | 5 (5=81-100%) | 5 (5=81-100%) | 4 (4=61-80%) | –

From patent US20250324971A1, “HERBICIDAL DERIVATIVES” (SYNGENTA CROP PROTECTION AG, priority 2022, published 2025)
